# Legend:
# Format in all cases: cell-based
# [1] = system: adipose derived mesenchymal stem cells; assay: Adipose tissue derived MSC expansion and cell size with nicotinamide, with or without FGF4; conditions: 5 mM NAM, 50 ng/ml FGF4
# Description: FIG. 15 is a graph illustrating the effect of nicotinamide, with and without FGF4 on adipose-derived MSC proliferation, through 4 passages of culture. Adipose derived mesenchymal stem cells were isolated using collagenase digestion and plastic adherence method, and cultured for several passages with fetal bovine serum. −NAM−FGF4=controls (blue diamonds), +NAM−FGF4=culture with 5 mM NAM (red squares), +NAM+FGF4=culture with 50 ng/ml FGF4 and 5 mM NAM (green triangles). Note the synergic effect of Nicotinamide and FGF4 added together on adipose-derived MSC proliferation; FIG. 16 is a graph detailing the effect of nicotinamide, with and without FGF4 on nucleated cell proliferation in adipose-derived MSC proliferation at passage 4. Adipose-derived mesenchymal stem cells were isolated and cultured as described in FIG. 15. −NAM−FGF4=controls, +NAM−FGF4=culture with 5 mM NAM, +NAM+FGF4=culture with 50 ng/ml FGF4 and 5 mM NAM. […] Cell size was analyzed by Cedex cell counter. −NAM−FGF4=controls, +NAM−FGF4=culture with 5 mM NAM, +NAM+FGF4=culture with 50 ng/ml FGF4 and 5 mM NAM. Note the smaller size of MSC cells grown in the presence of nicotinamide, and even smaller MSCs grown with nicotinamide and FGF4; Proliferation and cell size distribution in adipose-derived mesenchymal stem cells cultured with nicotinamide with or without additional FGF4 was assessed in up to 4 passages of the cultures.
# mesenchymal stem cells = assay: In-vitro wound healing assay on MSC cultures; conditions: passage 3; 4 days post wound formation
# Description: FIGS. 20A-B are photographs illustrating results of an in vitro wound healing assay which was performed on MSCs cultured with (FIG. 20B) or without (FIG. 20A) nicotinamide at passage 3. Wound healing was observed 4 days post wound formation. In-vitro wound healing assay: Wound was performed in MSCs cultures at ˜70% confluence using 200 μl or 1000 μl tip. Four days later the cells were fixated using 10% cold Formalin (Sigma) and stained with Harris Hematoxylin (Sigma). The in-vitro wound healing process was evaluated using microscope.
# [2] = system: Hepatocyte Growth Factor (HGF); assay: HGF content of MSC conditioned medium by ELISA; conditions: passage 4; 5 mM NAM, 50 ng/ml FGF4; serum- and FGF4-free medium for 24 hours
# Text: FIG. 22 is a bar graph illustrating enhancement of Hepatocyte Growth Factor (HGF) content of conditioned medium from nicotinamide and FGF4-treated MSC cultures. Bone marrow mesenchymal stem cells were isolated using Ficoll and plastic adherence method, and cultured for several passages with fetal bovine serum, with added nicotinamide and FGF4 (+NAM+FGF4), with added nicotinamide (+NAM−FGF4) and without added nicotinamide or FGF (−NAM−FGF4). Twenty four hours before passage 4, the media was changed and fresh media without fetal bovine serum or FGF4 was added. The cultured media from passage 4 cultures was collected and assayed for HGF content by ELISA. −NAM, −FGF4=control; +NAM−FGF4=5 mM NAM, +NAM+FGF4=5 mM NAM+50 ng/ml FGF4. Note the significant effect of combined FGF4 and nicotinamide on HGF secretion; Mesenchymal stem cells cultured with nicotinamide and FGF4 have enhanced expansion potential, and maintain an undifferentiated state, compared to mesenchymal stem cells cultured in unsupplemented medium, or mesenchymal stem cells cultured with added nicotinamide alone. In order to assess whether mesenchymal stem cells cultured with nicotinamide or nicotinamide and FGF4 modify the culture medium in a unique manner, secretion of biologically active molecules into the culture medium was measured by ELISA, after depletion of the FGF4 from the medium.
# IL-6 = IL-6 content of MSC conditioned medium by ELISA; conditions: passage 4; 5 mM NAM, 50 ng/ml FGF4; serum- and FGF4-free medium for 24 hours
# Description: FIG. 25 is a bar graph illustrating reduction of cytokine IL-6 (IL-6) content of conditioned medium from nicotinamide and FGF4-treated MSC cultures. Bone marrow mesenchymal stem cells were isolated and cultured as in FIG. 22 above. Cultured media was changed to medium without fetal bovine serum or FGF4 24 hours prior to passage 4, collected from the passage 4 cultures and assayed for IL-6 content by ELISA. −NAM, −FGF4=control; +NAM−FGF4=5 mM NAM, +NAM+FGF4=5 mM NAM+50 ng/ml FGF4. […] In order to assess whether mesenchymal stem cells cultured with nicotinamide or nicotinamide and FGF4 modify the culture medium in a unique manner, secretion of biologically active molecules into the culture medium was measured by ELISA, after depletion of the FGF4 from the medium.
compound,measurement,setting,value
"NC(=O)c1cccnc1 [nicotinamide, Nicotinamide]",size of the expanded adipose-derived mesenchymal stem cells,[1]; Cedex cell counter,enhanced growth of populations of smaller (less differentiated) cells
same,adipose derived mesenchymal stem cell expansion in culture,[1]; up to 4 passages,substantially improved
same,wound closure capacity of MSCs,mesenchymal stem cells,higher wound closure capacity
same,HGF level in conditioned medium,[2],elevated levels
same,IL-6 secreted into conditioned medium,IL-6,reduction
